One block for each compound: values may come before it.
Tests used:
Format in all cases: cell-based, chick
[1] = target: T1, α7 AChR E^172C mutant (C^115A/L^247T background) (Gallus gallus, UniProt P22770, C138A/E195C/L270T); assay: ACh dose-response, two-electrode voltage clamp in Xenopus oocytes; conditions: co-expression with human RIC-3
From the text: (§1) A cDNA clone of the chick α7 receptor containing two mutations (C^115A, L^247T) was used as the parental phenotype for mutations described in this study. We mutated the lone unpaired cysteine in the extracellular domain (C^115) to alanine to allow for a more straightforward interpretation of thiol modification experiments. […] We included the mutation of leucine 247 in the M2 transmembrane domain (L^247T; L9'T) because of its large current amplitudes and non-desensitizing kinetics compared to wild-type α7 receptors. […] All mutations were introduced by site-directed mutagenesis using the QuikChange method (Agilent Technologies, La Jolla, CA) as described previously, and were confirmed by DNA sequencing.
(§2) cRNA was prepared using the T7 RNA polymerase and mMessage mMachine kit as described by the manufacturer (Applied Biosystems, Austin, TX). Oocytes were surgically removed and prepared from female Xenopus laevis in accordance with UNC Institutional Animal Care and Use Committee guidelines. Oocytes were injected with 20 ng of cRNA and incubated at 18°C in ND96 (96 mM NaCl, 2 mM KCl, 1 mM MgCl2, 1.8 mM CaCl2, 5 mM Na pyruvate, 50 μg/ml gentamicin, 5 mM HEPES, pH 7.5) for 2–5 days before use. For some mutants we co-injected cRNA encoding the human RIC-3 [38], a protein shown to enhance expression of α7 AChRs in both mammalian cells and oocytes.
(§3) Oocytes were superfused in normal extracellular solution containing a reduced Ca^2+ concentration (ESLC; 96 mM NaCl, 2 mM KCl, 1 mM MgCl2, 0.1 mM CaCl2, and 10 mM HEPES, pH 7.5). […] Two-electrode voltage clamp was performed with a GeneClamp 500B controlled by pCLAMP8 software (Molecular Devices, Sunnyvale, CA). Electrodes were filled with 3 M KCl contacting Ag-AgCl wires and had resistances of 0.5 to 2.0 MΩ. Currents were recorded at a constant holding potential of -60 mV. Currents were low pass filtered at 50 Hz and sampled at 100 Hz. Agonist dose-response curves were obtained as described previously, and data were fit to the Hill equation using Origin software (Microcal Software, Northampton, MA).
(§4) MTSEA was prepared daily in distilled water and stored on ice. Stock solution was diluted to the appropriate working concentration in ESLC immediately before each application. […] To measure the effect of Ba^2+ on modification rates we pre-applied 10 mM Ba^2+ for 30 seconds prior to co-application of 10 mM Ba^2+ plus MTSEA. […] Kinetic data were analyzed as described previously; rate data were fit to a single exponential to extract a pseudo-first order rate constant; this was divided by the MTSEA concentration used to determine the second order rate constant for thiol modification.

[2] = target: T2, α7 AChR E^44C mutant (C^115A/L^247T background) (Gallus gallus, UniProt P22770, C138A/E67C/L270T); assay: as above
From the text: as §1, §2, §3, §4

[3] = target: T3, α7 AChR M^37C mutant (C^115A/L^247T background) (Gallus gallus, UniProt P22770, C138A/L270T/M60C); assay: as above
From the text: as §1, §2, §3, §4

[4] = target: T4, α7 AChR M^40C/E^172Q mutant (C^115A/L^247T background) (Gallus gallus, UniProt P22770, C138A/E195Q/L270T/M63C); assay: as above; conditions: co-expression with human RIC-3
From the text: as §1, §2, §3, §4

[5] = target: T5, α7 AChR N^170C mutant (C^115A/L^247T background) (Gallus gallus, UniProt P22770, C138A/L270T/N193C); assay: as above; conditions: co-expression with human RIC-3
From the text: as §1, §2, §3, §4

[6] = target: T6, α7 AChR N^52C mutant (C^115A/L^247T background) (Gallus gallus, UniProt P22770, C138A/L270T/N75C); assay: as above
From the text: as §1, §2, §3, §4

[7] = target: α7 C^115A/L^247T receptor (Gallus gallus, UniProt P22770, C138A/L270T); assay: as above
From the text: as §1, §2, §3, §4

[8] = target: T7, α7 AChR M^40C mutant (C^115A/L^247T background) (Gallus gallus, UniProt P22770, C138A/L270T/M63C)
T7 construct: expressed in transfected cells; host or cells: Xenopus laevis oocytes injected with cRNA
From the text: as §1, with “sequencing. […]” for “sequencing.”
Oocytes were superfused in normal extracellular solution containing a reduced Ca^2+ concentration (ESLC; 96 mM NaCl, 2 mM KCl, 1 mM MgCl2, 0.1 mM CaCl2, and 10 mM HEPES, pH 7.5). […] Currents were recorded at a constant holding potential of -60 mV. […]
MTSEA was prepared daily in distilled water and stored on ice. […] Kinetic data were analyzed as described previously; rate data were fit to a single exponential to extract a pseudo-first order rate constant; this was divided by the MTSEA concentration used to determine the second order rate constant for thiol modification.

[9] = target: T1, α7 AChR E^172C mutant (C^115A/L^247T background); assay: MTSEA thiol modification rate (SCAM) from ACh-evoked currents in oocytes; conditions: ± standard error
Protocol: (§5) ACh-evoked current amplitudes decreased following brief, repeated exposure to a limiting concentration of MTSEA (5 μM, 15 seconds). To ensure that the modification reactions were complete, all rate measurements included a final prolonged application of ~100-fold higher concentrations of MTSEA (Fig. 3A and 3B, right). Currents measured following this application represent the endpoint of the reaction between MTSEA and receptors. When the same protocol included Ba^2+ pretreatment and co-application with MTSEA (see Methods), the decreases in current amplitudes were slowed but the same endpoint was obtained (Fig. 3B). Normalized current amplitudes were plotted as a function of the cumulative time of exposure to MTSEA, and pseudo first-order rates were extracted from the single-exponential fits (Fig. 3C).
(§6) Figure 3 Barium slows the rate of MTSEA modification at M^37C. Example of experimental paradigm used to assess Ba^2+ effects on modification rates. […] Endpoints of MTSEA modification are determined by prolonged application of 500 μM MTSEA (right). (B) The same protocol, including Ba^2+ pretreatment and co-application with MTSEA. Current traces are truncated in both (A) and (B) between consecutive MTSEA applications; in all cases the currents were allowed to return to baseline prior to the next application of MTSEA ± ACh. (C) Peak current amplitudes from (A) and (B) are normalized and plotted versus total MTSEA exposure time. Data from this single experiment (no error bars) are fitted to a single-exponential decay (solid line) to extract an apparent pseudo first-order rate constant. The pseudo first-order rate constants calculated in this experiment were 0.011 s^-1 and 0.0019 s^-1 for control (A) and +Ba^2+ (B) measurements, respectively. Second-order rate constants are calculated from these values (Figures 4–6; Table 2).
(§7) Oocytes were superfused in normal extracellular solution containing a reduced Ca^2+ concentration (ESLC; 96 mM NaCl, 2 mM KCl, 1 mM MgCl2, 0.1 mM CaCl2, and 10 mM HEPES, pH 7.5). This solution minimized Ca^2+ influx and eliminated Ca^2+-activated chloride currents. Two-electrode voltage clamp was performed with a GeneClamp 500B controlled by pCLAMP8 software (Molecular Devices, Sunnyvale, CA). Electrodes were filled with 3 M KCl contacting Ag-AgCl wires and had resistances of 0.5 to 2.0 MΩ. Currents were recorded at a constant holding potential of -60 mV. Currents were low pass filtered at 50 Hz and sampled at 100 Hz. Agonist dose-response curves were obtained as described previously, and data were fit to the Hill equation using Origin software (Microcal Software, Northampton, MA).
(§8) MTSEA was prepared daily in distilled water and stored on ice. Stock solution was diluted to the appropriate working concentration in ESLC immediately before each application. […] The limiting dose, yielding 20–40% of the maximal MTSEA effect, was identified for each mutant. […] To measure the effect of Ba^2+ on modification rates we pre-applied 10 mM Ba^2+ for 30 seconds prior to co-application of 10 mM Ba^2+ plus MTSEA. This concentration of Ba^2+ is equivalent to an approximate […] for the modulatory effects in both parental and mutant AChRs. Kinetic data were analyzed as described previously; rate data were fit to a single exponential to extract a pseudo-first order rate constant; this was divided by the MTSEA concentration used to determine the second order rate constant for thiol modification.

[10] = target: T2, α7 AChR E^44C mutant (C^115A/L^247T background); assay: as above
Protocol: as §5, §6, §7, §8

[11] = target: T3, α7 AChR M^37C mutant (C^115A/L^247T background); assay: as above; conditions: for pseudo first-order rate constant of MTSEA modification: 5 μM MTSEA, single experiment
Protocol: as §5, §6, §7, §8

[12] = target: T7, α7 AChR M^40C mutant (C^115A/L^247T background); assay: as above; conditions: ± standard error
Protocol: as §5, §6, §7, §8

[13] = target: T4, α7 AChR M^40C/E^172Q mutant (C^115A/L^247T background); assay: as above; conditions: ± standard error
Protocol: as §5, §6, §7, §8

[14] = target: T5, α7 AChR N^170C mutant (C^115A/L^247T background); assay: as above; conditions: ± standard error
Protocol: as §5, §6, §7, §8

[15] = target: T6, α7 AChR N^52C mutant (C^115A/L^247T background); assay: as above; conditions: ± standard error
Protocol: as §5, §6, §7, §8

[16] = co-expression with human RIC-3, MTSEA + 10 mM Ba^2+ (30 s pre-application)
[17] = co-expression with human RIC-3, MTSEA + ~EC110 ACh
[18] = co-expression with human RIC-3, MTSEA alone
[19] = MTSEA + 10 mM Ba^2+ (30 s pre-application), ± standard error
[20] = MTSEA + ~EC110 ACh, ± standard error
[21] = MTSEA + 10 mM Ba^2+ (30 s pre-application)

Structure (SMILES): CC(=O)OCC[N+](C)(C)C [ACh, acetylcholine chloride]
ACh Imax [1]: 1.3 μA
ACh Imax [2]: 5.4 μA
Hill coefficient of ACh dose-response ([2]; + 10 mM BaCl2): 2.9 ± 0.7
Hill coefficient of ACh dose-response ([2]; -Ba^2+): 1.7 ± 0.2
ACh Imax [3]: 0.92 μA
ACh Imax [4]: 0.7 μA
ACh Imax [5]: 1.7 μA
ACh Imax [6]: 0.34 μA
ACh Imax [7]: 6.9 μA
Hill coefficient of ACh dose-response ([7]; + 10 mM BaCl2): 1.9 ± 0.4
Hill coefficient of ACh dose-response ([7]; -Ba^2+): 2.5 ± 0.2
ACh Imax [8]: 3.0 μA

MTSEA modification rate (second-order rate constant), + Ba^2+ [9, 16]: 7.3 ± 0.3 (6) × 10^3, M^-1 S^-1
MTSEA modification rate (second-order rate constant), + ACh [9, 17]: 3.5 ± 0.1 (5) × 10^3, M^-1 S^-1
MTSEA modification rate (second-order rate constant), control [9, 18]: 15 ± 0.4 (5) × 10^3, M^-1 S^-1
MTSEA modification rate (second-order rate constant), + Ba^2+ [10, 19]: 9.3 ± 0.1(8) × 10^3, M^-1 S^-1
MTSEA modification rate (second-order rate constant), + ACh [10, 20]: 0.90 ± 0.05 (4) × 10^3, M^-1 S^-1
MTSEA modification rate (second-order rate constant), control ([10]; MTSEA alone, ± standard error): 23 ± 0.7 (4) × 10^3, M^-1 S^-1
MTSEA modification rate in the presence of Ba^2+ compared to that in the presence of ACh ([10]; higher with Ba^2+): ~ 10 fold
pseudo first-order rate constant of MTSEA modification ([11]; +Ba^2+): 0.0019 s⁻¹
pseudo first-order rate constant of MTSEA modification ([11]; control): 0.011 s⁻¹
MTSEA modification rate (second-order rate constant), + Ba^2+ [11, 19]: 0.40 ± 0.02 (5) × 10^3, M^-1 S^-1
MTSEA modification rate (second-order rate constant), + ACh [11, 20]: 0.30 ± 0.05 (4) × 10^3, M^-1 S^-1
MTSEA modification rate (second-order rate constant), control ([11]; MTSEA alone, ± standard error): 2.4 ± .03 (10) × 10^3, M^-1 S^-1
MTSEA modification rate (second-order rate constant), + Ba^2+ [12, 21]: 2.8 ± 0.05 (7) × 10^3, M^-1 S^-1
MTSEA modification rate (second-order rate constant), + ACh ([12]; MTSEA + ~EC110 ACh): 2.2 ± 0.4 (3) × 10^3, M^-1 S^-1
MTSEA modification rate (second-order rate constant), control ([12]; MTSEA alone): 16 ± 0.2 (13) × 10^3, M^-1 S^-1
MTSEA modification rate (second-order rate constant), + Ba^2+ [13, 16]: 2.0 ± 0.3 (6) × 10^3, M^-1 S^-1
MTSEA modification rate (second-order rate constant), + ACh [13, 17]: 1.3 ± 0.1 (5) × 10^3, M^-1 S^-1
MTSEA modification rate (second-order rate constant), control [13, 18]: 14 ± 0.5 (5) × 10^3, M^-1 S^-1
MTSEA modification rate (second-order rate constant), + Ba^2+ [14, 16]: 3.7 ± 0.06 (9) × 10^3, M^-1 S^-1
MTSEA modification rate (second-order rate constant), + ACh [14, 17]: 5.7 ± 0.1 (7) × 10^3, M^-1 S^-1
MTSEA modification rate (second-order rate constant), control [14, 18]: 3.3 ± .05 (7) × 10^3, M^-1 S^-1
MTSEA modification rate (second-order rate constant), + Ba^2+ [15, 21]: 0.26 ± 0.02 (7) × 10^3, M^-1 S^-1
MTSEA modification rate (second-order rate constant), + ACh ([15]; MTSEA + ~EC110 ACh): 1.4 ± 0.04 (7) × 10^3, M^-1 S^-1
MTSEA modification rate (second-order rate constant), control ([15]; MTSEA alone): 0.40 ± .08 (9) × 10^3, M^-1 S^-1
Structure (SMILES): CS(=O)(=O)SCCN [MTSEA, 2-aminoethylmethane thiosulfonate]

Reference: article PMC2632993, “Conformational changes in α7 acetylcholine receptors underlying allosteric modulation by divalent cations” (BMC Pharmacology, 2009)
